These results are taken from patent publication US20240376070A1, “GPR52 MODULATOR COMPOUNDS” (NXERA PHARMA UK LIMITED, priority 2021, published 2024).

Values after ≈ are worked out from the molar mass of the structure shown. Some results are limits rather than exact numbers.

Data set [1] can be described thus: Plasma concentration-time data after PO dose of Example 2 in Beagle dogs. The format is in vivo. The settings on record: dog, PO Example 2, all time points. The procedure: (§1) Systemic exposure of Example 2 and Intermediate 6 (Example 39 of Applicant's earlier application PCT/GB2021/050638 (WO2021/181122A1)) were assessed in male Sprague-Dawley rats and male Beagle dogs following oral (per os, PO) administration of Example 2. Plasma concentration-time data (mean values±standard deviation) are detailed in Tables 4 and 5.
(§2) Three male Sprague-Dawley rats (weighing 269-270 g) and three male Beagle dogs (weighing 7-10 kg), were administered a single dose of Example 2 via PO route, using the dose and vehicle specified in Table #. Following dosing, blood samples were taken at several time points (pre-dose, 5 min, 15 min, 30 min, 1 h, 2 h, 4 h, 8 h, 12 h and 24 h in both species, plus additional samples at 32 h and 48 h in dog) via serial bleeding of jugular vein (rat) or cephalic vein (dog), and centrifuged to separate plasma for quantitative bioanalysis of Example 2 and Intermediate 6 by LC-MS/MS.

A short description of data set [2]: Plasma concentration-time data after PO dose of Example 2 in Sprague-Dawley rats. In kind it is in vivo. The settings on record: rat, PO Example 2, all time points. How it is done: as §1, §2
Data set [3] is described as follows: Thermodynamic solubility in biorelevant media. The format is physicochemical. The settings on record: thermodynamic from solid. How it is done:
This experiment was designed to evaluate the thermodynamic solubility of Example 2 in various biorelevant media (Blank Fasted State Simulated Intestinal Fluid (FaSSIF) pH 6.5, FaSSIF pH 6.5 and simulated gastric fluid (SGF) without enzyme pH 1.2).
A 10 mM stock solution of Example 2 in dimethyl sulfoxide (DMSO) was prepared. From the 10 mM stock solution, a 1 mM intermediate solution of Example 2 in DMSO was prepared. A working solution of 1 μM of Example 2 was prepared by diluting the intermediate solution in mobile phase solution (methanol: 2 mM ammonium acetate containing suitable internal standard—carbamazepine). The working solution was serially diluted in mobile phase solution up to 8 linearity points to prepare standard solutions for plotting a calibration curve. The area for each standard solution was analyzed using LCMS/MS. The normalized area values were plotted vs. concentration to achieve a calibration equation.
Example 2 (1 mg) was added to 1 mL of each desired biorelevant media (SGF without enzyme pH 1.2, Blank FaSSIF pH 6.5 and FaSSIF pH 6.5) to achieve a theoretical concentration equivalent to 1 mg/mL.
The resulting solutions were then kept on RotoSpin (shaker) at 50 rpm for 4 hours at room temperature (25° C.). After the incubation period, the content was filtered through a 0.45 μm PVDF (hydrophilic) syringe filter and the filtrate was taken for quantification by LCMS/MS. The filtrate was diluted in mobile phase and subsequently, the area under the curve (AUC) was ascertained for diluted sample using LCMS/MS. From the AUC of test sample the corresponding concentration was calculated using 6 to 8 point linearity/calibration curve.

The target in another data set is T1, human GPR52 (Homo sapiens, UniProt Q9Y2T5).
T1 construct: expressed in transfected cells; host or cells: HEKf suspension cells, BacMam (modified baculovirus) transduction
T1 sequence (Q9Y2T5 whole entry): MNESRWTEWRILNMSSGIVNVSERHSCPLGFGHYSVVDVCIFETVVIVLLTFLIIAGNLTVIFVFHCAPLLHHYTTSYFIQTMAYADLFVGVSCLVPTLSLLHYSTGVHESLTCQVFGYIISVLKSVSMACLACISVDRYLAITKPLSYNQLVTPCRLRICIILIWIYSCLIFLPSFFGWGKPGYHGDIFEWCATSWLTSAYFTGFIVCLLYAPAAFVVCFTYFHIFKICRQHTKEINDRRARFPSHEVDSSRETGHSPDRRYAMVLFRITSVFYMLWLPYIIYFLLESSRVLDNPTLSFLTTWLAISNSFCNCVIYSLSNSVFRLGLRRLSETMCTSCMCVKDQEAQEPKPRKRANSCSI
In words: GPR52 Agonist Functional cAMP Assay. The format is cell-based. To be noted: HEKf cells infected with human GPR52 BacMam, cAMP HTRF, 30 min 37° C.; read-out: pEC50 average (converted). The procedure:
HEKf suspension cells were infected for 24 h with 0.1% v/v human GPR52 expressing BacMam virus, a modified baculovirus designed for mammalian gene expression. Following BacMam infection, cells were pelleted by centrifugation (335 g, 5 min), resuspended in cell freezing medium (Sigma) and frozen at −150° C. until required. On experiment day, 25 nL GPR52 compound dilutions, prepared in DMSO, were stamped onto proxiplates (PerkinElmer) by a LabCyte ECHO acoustic dispenser. Frozen cells were thawed and resuspended in assay stimulation buffer (Cisbio) containing 0.5 mM 3-iso-butyl-1-methylxanthine (IBMX, Sigma) to achieve a density of 2000 cells per well. 10 μl cells were added to assay plates using a Multidrop Combi Reagent Dispenser (ThermoFisher) before centrifugation (1 min). Cells were incubated with compounds at 37° C. for 30 min prior to addition of cAMP detection reagents (HiRange cAMP kit, Cisbio) which were prepared according to the manufacturer's instructions. Plates were shaken for 1 h at room temperature before reading on a PHERAstar FS plate reader (BMG Labtech) using standard HTRF settings. HTRF ratios were obtained by dividing the acceptor emissions (665 nm) by the donor emissions (620 nm) and multiplying by 10,000. […] Further pharmacokinetic data for Intermediate 6 is provided in Applicant's earlier application PCT/GB2021/050638 (see Example 39).
On the technique in general: TR-FRET usually uses a lanthanide donor and a delayed reading to cut background.

Data set [4] concerns caffeine-induced hyperlocomotor response. The experiment in a line: Caffeine-induced locomotor activity in rat. In kind it is in vivo, Sprague-Dawley rats. The settings on record: rat, 0.1, 0.3, 1 and 3 mg/kg PO, 60 min before caffeine 15 mg/kg s.c., 2 h activity. An excerpt:
Caffeine, a non-selective adenosine receptor antagonist, is a psychostimulant which increases rodent locomotor activity principally via blockade of A2A receptors (Br. J. Pharmacol., 2000, 129, 1465). These receptors are densely expressed on the terminals of GABAergic striatopallidal neurons in the indirect pathway of the basal ganglia, in which dopamine D2 receptors are co-expressed (J. Comp. Neurol., 1998, 401, 163; J. Comp. Neurol., 2001, 431, 331). Tonic activation of A2A receptors decreases the affinity of D2 receptors to dopamine and antagonism of A2A receptors facilitates dopaminergic signalling (Curr. Pharm. Des., 2008, 14, 1468). […] Male Sprague-Dawley rats (200-250 g) were housed in groups with a 12 h light/dark cycle (lights on at 07.00), at an ambient temperature of 21±2° C. and with standard pelleted diet and water ad libitum. Testing was carried out in the light phase. On the day of the experiment, animals were habituated to the locomotor cages for a 60-minute period. Subsequently, they were dosed with vehicle or Intermediate 6 (Example 39 of WO2021/181122A1) (0.1, 0.3, 1 and 3 mg/kg) by the oral route and returned to the appropriate locomotor cage. […] Locomotor activity was assessed for a 2 h period after caffeine treatment. […] SEMs were calculated from the residuals of the statistical model. […]

The nature of another data set: Rat IV pharmacokinetics. To be noted: male, Sprague-Dawley, plasma, IV 1 mg/kg, n = 3. The format is in vivo, Sprague-Dawley rats. The procedure: The pharmacokinetic profiles of Intermediate 6 (Example 39 of WO2021/181122A1) were assessed in male Sprague-Dawley rats via intravenous (IV) delivery. Pharmacokinetic data (mean values±standard deviation) for Intermediate 6 (Example 39 of WO2021/181122A1) are detailed in Table 7.
For pharmacokinetic analysis, groups of three male Sprague-Dawley rats, ranging in weight between 200 and 230 g, were administered a single dose of Intermediate 6 (Example 39 of WO2021/181122A1) via IV, using the dose, dose volume and vehicle specified in Table 7. Following dosing, blood samples were taken at several time points (pre-dose, 2 min, 5 min, 15 min, 30 min, 1 h, 3 h, 6 h, 12 h and 24 h for IV) via serial tail vein bleeds, and centrifuged to separate plasma for analysis by LC-MS/MS. WinNonlin v8.2 statistics software (Pharsight Corporation, California, USA) was used to generate pharmacokinetic parameters using non-compartmental analysis.

Data set [5] can be described thus: Rat IV brain penetration (Kp,uu). The format is in vivo, Sprague-Dawley rats. The settings on record: male, Sprague-Dawley, brain and plasma, IV 1 mg/kg, n = 3, unbound brain-to-plasma ratio. How it is done: Plasma and brain exposure were evaluated to assess the brain penetration of Intermediate 6 (Example 39 of WO2021/181122A1), following IV administration. Unbound brain-to-plasma ratio (Kp,uu) was calculated, as detailed in Table 7, following experimental determination of binding in rat plasma and brain homogenate.
For brain penetration assessment, male Sprague-Dawley rats (n=3) were administered a single 1 mg/kg dose (formulated in 10% DMAC+10% Solutol HS15+80% saline) via the IV route. After 10 min post-dose, animals were sacrificed and brains extracted, homogenised with 2 volumes (w/v) of 50 mM sodium phosphate buffer (pH 7.4), and analysed by LC-MS/MS. Blood samples were removed at the same time point via tail vein bleed, centrifuged and the plasma analysed by LC-MS/MS.
To permit calculation of unbound brain-to-plasma ratio (Kp,uu), test compound binding in rat plasma and brain homogenate was performed, using Rapid Equilibrium Dialysis (RED). […]
After incubation, the contents of each plasma/brain and buffer compartment were removed and mixed with equal volumes of control dialysed buffer or plasma/brain to maintain matrix similarity for analysis. […] Fraction unbound (Fu) in plasma and brain was calculated using the following formula, then used to correct total plasma and brain concentrations to derive the Kp,uu:

Regarding `Cc1nn(-c2cc(Cc3cc(F)cc(C(F)(F)F)c3)ccn2)c(COP(=O)(O)O)c1C(N)=O` [Example 2], the “Plasma concentrations of Example 2” value in data set [1] and in data set [2] was under 1 ng/mL in each case. For the same compound, the solubility at 4 h in data set [3] (SGF without enzyme, simulated gastric fluid, SGF, pH 1.2, 25° C.) is 13.1 µM (≈ 6.38 µg/mL); in data set [3] (fassgf or other biorelevant, Blank FaSSIF, pH 6.5, 25° C.), 1890 µM (≈ 922 µg/mL); in data set [3] (FaSSIF, pH 6.5, 25° C.) it was 1830 µM (≈ 894 µg/mL).
In the case of `Cc1nn(-c2cc(Cc3cc(F)cc(C(F)(F)F)c3)ccn2)c(CO)c1C(N)=O` [Intermediate 6, 1-(4-(3-fluoro-5-(trifluoromethyl)benzyl)pyridin-2-yl)-5-(hydroxymethyl)-3-methyl-1H-pyrazole-4-carboxamide], the EC50 at human GPR52 is 6.31 nM. Further, the “effect on caffeine-induced hyperlocomotor response” value in data set [4] is “dose-dependent reduction of the caffeine-induced hyperlocomotor response, reaching statistical significance at 1 and 3 mg/kg”. In addition, the clearance in the data set “Rat IV pharmacokinetics” worked out at 8.8 ± 1.1 mL/min/kg. The Kp uu at 10 min in data set [5] was 0.42 ± 0.08.
As for `Cc1nn(-c2cc(Cc3cc(F)cc(C(F)(F)F)c3)ccn2)c(CO)c1C(=O)NCCO` [Intermediate 7, 1-(4-(3-fluoro-5-(trifluoromethyl)benzyl)pyridin-2-yl)-N-(2-hydroxyethyl)-5-(hydroxymethyl)-3-methyl-1H-pyrazole-4-carboxamide], the EC50 on human GPR52 is 2.51 nM.
The same measure, in the same setting: with `Cc1nn(-c2ccnc(Cc3cc(F)cc(C(F)(F)F)c3)c2)c(CO)c1C(N)=O` [Intermediate 10, 1-(2-(3-fluoro-5-(trifluoromethyl)benzyl)pyridin-4-yl)-5-(hydroxymethyl)-3-methyl-1H-pyrazole-4-carboxamide] the figure was 31.6 nM; with `Cc1nn(-c2ccnc(Cc3cc(F)cc(C(F)(F)F)c3)c2)c(CO)c1C(=O)NCCO` [Intermediate 11, 1-(2-(3-fluoro-5-(trifluoromethyl)benzyl)pyridin-4-yl)-N-(2-hydroxyethyl)-5-(hydroxymethyl)-3-methyl-1H-pyrazole-4-carboxamide], 31.6 nM; with `CNC(=O)c1c(C)nn(-c2cc(Cc3cc(F)cc(C(F)(F)F)c3)ccn2)c1CO` [Intermediate 12, 1-(4-(3-fluoro-5-(trifluoromethyl)benzyl)pyridin-2-yl)-5-(hydroxymethyl)-N,3-dimethyl-1H-pyrazole-4-carboxamide], 10 nM.
For `Cc1nn(-c2cc(Cc3cc(F)cc(C(F)F)c3)ccn2)c(CO)c1C(N)=O` [Intermediate 16, 1-(4-(3-(difluoromethyl)-5-fluorobenzyl)pyridin-2-yl)-5-(hydroxymethyl)-3-methyl-1H-pyrazole-4-carboxamide], the EC50 at human GPR52 was 3.98 nM.

Usually solubility stands for the concentration that dissolves in the medium under given conditions. A low value points to a poorly soluble substance. By clearance is commonly meant a measure of how efficiently the substance is removed, as volume per time.
